In PMC8306634, “Antimicrobial and Antioxidative Activity of Newly Synthesized Peptides Absorbed into Bacterial Cellulose Carrier against Acne vulgaris” (International Journal of Molecular Sciences, 2021):
Converted amounts (≈) assume the structure as drawn. Where a SMILES comes first, the peptide text is derived from it. Side-chain parts run from the residue outwards. The star is where a group is joined. Lauroyl = CCCCCCCCCCCC(=O)*

Legend:
S. aureus biofilm = assay: Activity against Staphylococcus aureus biofilm (MBEC, TTC); type: cell-based; conditions: for reduction of staphylococcal biofilm: 24 h, TTC read-out 490 nm, ANOVA with Tukey's test p < 0.05
Procedure: A total of 100µL of S. aureus suspension (10^5 cfu/mL) in TSB) medium was introduced to wells of 96-well plate and incubated at 37 °C/24 h without shaking. Next, whole medium was removed, leaving biofilm-forming organisms attached to the bottom of a 96-well plate. Subsequently, geometric dilutions of peptides in TSB (62.5–250 mg/L) were applied to the wells and left for another 24 h at 37 °C. The culture with no added peptide served as a positive control for microorganism growth, while the well containing the sterile TSB only served as a sterility control for the experiment. After incubation, 5 µL of triphenyl tetrazolium chloride (TTC, Sigma Aldrich, Taufkirchern, Germany) was added to each well and incubated for 5 h at 37 °C. A change of colorless TTC to red formazan confirmed the presence of metabolically active microorganisms. Next, the formazan was dissolved in methanol and its concentration was measured using a Thermo Scientific Multiskan Go spectrometer with a wavelength of 490 nm. In parallel, biofilms in plate wells were agitated using an automated pipette, removed from 96-well plates, and spotted on a stable (M-H) agar plate (Biomaxima, Lublin, Poland) where they were incubated for 48 h. The presence of living colonies on agar indicated the lack of MBEC, while the absence of colonies in the place where spotting was performed confirmed that the particular concentration of peptide can be considered the MBEC.

S. aureus = conditions: 24 h
C. acnes = conditions: 24 h
S. aureus 6538 [1] = assay: Minimal inhibitory concentration against planktonic Staphylococcus aureus; type: cell-based; conditions: M-H broth, 24 h/37 °C, tested 0.48-250 mg/L, turbidity 580 nm, triplicate
Procedure: A loop of staphylococcal culture grown on Columbia agar plate (BioMaxima, Poland) was transferred to liquid tryptone soya broth (TSB, BTL) and incubated at 37 °C for 24 h. Next, culture’s optical density of 1 McFarland (3 × 10^8 cfu/mL) was established using a densitometer (Biomerieux, Poland). Subsequently, the suspension was diluted in the Miller-Hinton Broth (M-H, BioMaxima, Poland) to reach the density of 1 × 10^5 cells/mL. Afterwards, serial dilutions of each peptide was performed in M-H Broth in 96-well plate (BioStar, Germany). Next 100 μL of previously-prepared microbial suspension was added to each well. The highest concentration of each peptide tested in this experimental setting was thus 250 mg/L and it dropped twice in each subsequent well of 96-well plate up to 0.48 mg/L. Plates were incubated for 24 h/37 °C in shaker (Lab Companion, JeioTech, Daejeon, Korea). After incubation, the turbidity of bacterial culture was measured using Thermo Scientific Multiskan Go spectrometer (Thermo-Fischer Scientific, Vantaa, Finland) with wavelength of 580 nm. The microbial culture where no peptide was added served as growth control. The sterility control setting was M-H broth with no microorganism added. The tetrazolium salt (TTC) test served as additional analysis of microbial cell number reduction. All experiments were performed in triplicate.

S. aureus 6538 [2] = conditions: for antimicrobial activity against planktonic S. aureus (in words): Figure 4, highest tested 250 mg/L; for MBC: 6538, 24 h; for concentration at which reduction of staphylococcal cell number was observed: planktonic S. aureus, Figure 4
Procedure: For experimental purposes, the American type culture collection’s strains of S. aureus 6538 and C. acnes 6919 were applied.
The following standard procedure of MBC evaluation according to CLSI (Methods for Determining Bactericidal Activity of Antimicrobial Agents; Approved Guideline, document M26A, Global Laboratory Standards for a Healthier World, https://clsi.org, accessed on 15 December 2020) was performed. The 96-well plates with bacteria and peptide concentrations were performed and incubated as it was described in Section 2 of Material and Methods. Then the M-H agar plates with spots containing staphylococcal culture were incubated at 37 °C for 24 h. Lack of colony presence in the spot after incubation was considered as lack of microorganism growth, while presence of microbial colony in the spot was considered presence of microorganism growth. All experiments were performed in triplicate.

[3] = DPPH radical scavenging activity; conditions: 25 °C, absorbance at 522 nm, triplicate
Procedure: The DPPH spectrometric method described by Brand, Williams et al. was applied due to its efficiency on lipophilic and hydrophilic samples [60]. The evaluation of free radical scavenging capacity (FRSC) was based on DPPH (Merck, Darmstadt, Germany) absorbance intensity resulting from its reaction with surfactants. A PG Instruments UV–Vis T60 spectrophotometer (Alab, Warszawa, Poland), interfaced with a computer with a quartz cuvette and of path length 1.0 cm at 25 °C, using a total volume of 3.0 mL, was applied in the range 190–900 nm. As a sample (As) 1.0 mL of P1–P6 aqueous solution (2 mg/mL) and 2.0 mL of ethanolic DPPH solution (5.9·10–2 mg/mL) were mixed and evaluated. As a blank (Ab), 1.0 mL of water, mixed with 2.0 mL of ethanol, was used. Absorbance decrease at 522 nm was measured in 2 min intervals for 6 h. FRSC was calculated as a percentage with the following equation: FRSC (%) = [(Ab – As)/Ab] × 100%. All measurements were performed in triplicate.

Compound | MBEC (S. aureus biofilm; 24 h S. aureus biofilm in TSB, peptides 62.5–250 mg/L for 24 h at 37 °C, spotting on M-H agar) | reduction of staphylococcal biofilm (S. aureus biofilm; exposure to 125 mg/L) | reduction of staphylococcal biofilm (S. aureus biofilm; exposure to 250 mg/L) | Inhibition Zone (S. aureus) | Inhibition Zone (C. acnes) | MIC (S. aureus 6538 [1]) | antimicrobial activity against planktonic S. aureus (in words) (S. aureus 6538 [2]) | time required for the extinction of fifty percent of the DPPH ([3]; peptide 2 mg/mL aqueous (1.0 mL) + 2.0 mL ethanolic DPPH 5.9·10–2 mg/mL) | MBC (S. aureus 6538 [2]) | concentration at which reduction of staphylococcal cell number was observed (S. aureus 6538 [2]) | DPPH radicals inhibited over six hours ([3]; peptide 2 mg/mL, six hours)
NCCCC[C@H](NC(=O)[C@H](Cc1c[nH]c2ccccc12)NC(=O)[C@H](CCCCN)NC(=O)[C@H](Cc1c[nH]c2ccccc12)NC(=O)[C@H](CCCCNC(=O)[C@H](CCCCN)NC(=O)[C@H](Cc1c[nH]c2ccccc12)NC(=O)[C@H](CCCCN)NC(=O)[C@@H](N)Cc1c[nH]c2ccccc12)NC(=O)[C@H](CCCCN)NC(=O)[C@H](Cc1c[nH]c2ccccc12)NC(=O)[C@H](CCCCN)NC(=O)[C@@H](N)Cc1c[nH]c2ccccc12)C(N)=O [Peptide P2, (WKWK)2-KWKWK-NH2] (H-WKWKK([Lys-Trp-Lys-Trp])WKWK-NH2) | not achieved | significant reduction | significant reduction | 0 mm | 1.6 ± 0.9 mm |  |  |  |  |  | 
(WK)2-KWK-NH2 [Peptide P1] |  |  |  |  |  | not observed | lack of antimicrobial activity |  |  |  | 
NCCCC[C@H](NC(=O)[C@H](Cc1c[nH]c2ccccc12)NC(=O)[C@@H](N)CCCCN)C(=O)NCCCC[C@H](NC(=O)[C@H](CCCCN)NC(=O)[C@H](Cc1c[nH]c2ccccc12)NC(=O)[C@@H](N)CCCCN)C(=O)N[C@@H](Cc1c[nH]c2ccccc12)C(=O)N[C@@H](Cc1c[nH]c2ccccc12)C(=O)N[C@@H](Cc1c[nH]c2ccccc12)C(N)=O [Peptide P5, (KWK)2-KWWW-NH2] (H-KWKK([Lys-Trp-Lys])WWW-NH2; N-terminus assumed) |  |  | significant reduction | 1 mm | 2 mm |  |  | 124 min | 250 µg/mL (≈ 157 µM) | 125 mg/L | 
CCCCCCCCCCCC(=O)NCCCC[C@H](NC(=O)CCCCCCCCCCC)C(=O)N[C@@H](CCCCN)C(=O)N[C@@H](CCCCN)C(=O)N[C@@H](CCCCN)C(N)=O [Peptide P4, (C12)2-KKKK-NH2] (Lauroyl-K(Lauroyl)KKK-NH2) |  | significant reduction | significant reduction | 0 mm | 0 mm |  | highest anti-staphylococcal activity |  |  | 62.5 mg/L | < 20%
NCCCC[C@H](NC(=O)[C@@H](N)CCCCN)C(=O)NCCCC[C@H](NC(=O)[C@H](CCCCN)NC(=O)[C@@H](N)CCCCN)C(=O)N[C@@H](Cc1c[nH]c2ccccc12)C(=O)N[C@@H](Cc1c[nH]c2ccccc12)C(=O)N[C@@H](Cc1c[nH]c2ccccc12)C(N)=O [Peptide P6, (KK)2-KWWW-NH2] (H-KKK([Lys-Lys])WWW-NH2; N-terminus assumed) |  | significant reduction | significant reduction | 0 mm | 0 mm |  |  |  | 250 µg/mL (≈ 205 µM) | 125 mg/L | 
(WR)2-KWR-NH2 [Peptide P3] |  |  |  |  |  |  | recordable antimicrobial activity, however only in the highest concentrations of 250 mg/L |  |  |  | 
